“And” between values parts separate entries of the source, which are not always exact repeats. Equal values may be shown once. Read-outs that look alike come from different tables or passages of the source.
Key:
[1] = tested on: HT1080 xenografts; assay: HT1080 xenograft dose response: tumor growth; format: in vivo, athymic nude mice; conditions: 18 days
Procedure: Experimental Study Design. HT1080 cells (5×10^6 cells/mouse) were implanted subcutaneously in male athymic nude mice.
Tumor size was measured using calipers at periodic intervals during the study (data shown in Section 9.2.2). […] The study was ended after 18 days, when the vehicle treated tumors reached a mean volume of ˜1755 mm^3. […] Mice were sacrificed, and excised tumors were homogenized in buffer containing protease inhibitors. Both terminal intratumoral and pathologic plasma human VEGF levels were measured using an ELISA that recognizes human VEGF121 and VEGF165 (as described in Section 9.1.1.1). Intratumoral VEGF levels were normalized to the total tumor protein concentration, while pathologic plasma human VEGF levels were expressed in pg/mL of plasma.
Experimental Design. The experimental design was reported in Section 9.1.2.2.

[2] = Trough plasma concentrations of Compound #10 in HT1080 xenograft mice (HPLC-MS/MS); format: in vivo; conditions: athymic nude, mouse, oral, 1 mg/kg BID
[3] = tested on: tumor VEGF; assay: Tumor VEGF content ELISA in microvessel density study, HT1080 xenografts; format: in vivo, human; conditions: racemic mixture, 5 mg/kg of Compound #10 oral BID, 10 days
Procedure: Experimental Design. HT1080 cells (5×10^6 cells/mouse) were implanted subcutaneously in male athymic nude mice.
At the end of treatment, the mice were sacrificed. Excised tumors were assayed by ELISA for VEGF content as described in Section 9.1.1.1, and were sectioned and immunostained with an anti murine CD31 antibody that is specific for endothelial cells.

[4] = tested on: MDA MB 468 xenografts; assay: Tumor perfusion by DCE-MRI in MDA-MB-468 xenografts; format: in vivo, athymic nude mice; conditions: 10 mg/kg oral QD
Source text: Experimental Design. Dynamic contrast-enhanced magnetic resonance imaging can be used preclinically and clinically to evaluate the anatomy of soft tissues, including the identification and accurate measurement of tumor volumes. In addition, evaluation of the intratumoral pharmacokinetics of contrast agents containing gadolinium can be used to measure vascular permeability characteristics. Coupling gadopentetate dimeglumine gadolinium to a […] like bovine serum albumin can reveal information about the necrotic (non-perfused) and non-necrotic (perfused) tumor volumes, and the percentage of vascular blood volume relative to the perfused tumor volume (known as the fractional blood volume [fBV]). Use of a […] tracer, gadopentetate dimeglumine, can reveal information regarding the volume transfer coefficient (K^trans), a variable that represents a combination of vascular permeability, vascular surface area, and blood flow.
Before each DCE-MRI scan, mice were injected intravenously with gadolinium-containing contrast dyes (bovine serum albumin-gadopentetate dimeglumine conjugate at ˜0.03 mmol/kg followed by gadopentetate dimeglumine at ˜0.2 mmol/kg). Baseline DCE-MRI measurements were taken on Day −1, test Compounds were administered on Day 0 through Day 5, and additional DCE-MRI measurements were taken on Days 1, 3, and 5. Image analyses were conducted with customized software. Total tumor volumes were measured by semi-automatically segmenting a region of interest around an anatomical image of the tumor. Tumor volumes of necrotic and non-necrotic tissues were measured by applying the same semi-automated segmentation process to a contrast dyed image. fBV and K^trans were computed using a standard Kety PK model.

[5] = tested on: HT1080 cells; assay: HT1080 spheroid cell viability and mobility (migration after re-plating); format: cell-based, human
Procedure: Experimental Design. […] Pictures were then taken 48 hours to assess the migration and proliferation of the cells across the well's surface.

[6] = tested on: VEGF-A; assay: Patients: serum and plasma VEGF-A levels; format: in vivo, human
Procedure: Subjects with NF2 may receive continuous daily treatment with a Compound administered at 100 mg per dose, 2 times a day (BID) for up to 1 year, or longer as appropriate, or until tumor progression. […] Tumor shrinkage or an improvement in hearing are indicators of efficacy.
Anti-angiogenic activity: Assessing VEGF concentrations provides a relevant and convenient mechanism-specific marker of Compound activity. […] For example, clinically validated ELISA kits (e.g., from R&D Systems, Minneapolis, Minn.) may be used to measure concentrations of VEGF, VEGF-C, P1GF, VEGFR, and inflammatory mediators such as IL-6 and IL-8. CT scan and MRI scan may also be used to assess peritumoral inflammation or edema.
Blood for VEGF, VEGFR, and Cytokines. Two blood samples (1 for plasma and 1 for serum) may be obtained for assessment of VEGF, VEGFR, and cytokine levels.
Each sample for plasma collection may comprise 3 mL of venous blood drawn into a […]® tube with K2EDTA as the anticoagulant. Immediately after collection, the tube may be gently inverted 8 to 10 times to mix the anticoagulant with the blood sample. The tube may be stored upright at room temperature until centrifugation; centrifugation and sample processing may be performed within 30 minutes of sample collection. […]

COc1ccc(C2c3[nH]c4ccc(Cl)cc4c3CCN2C(=O)Oc2ccc(Cl)cc2)cc1 (racemic) [Compound #10]
Toxicity on observing the animals ([1]; HT1080 xenograft mice): no overt toxicity | Dose levels at which maximum antitumor activity was observed ([1]; HT1080 xenografts): ≥ 1 mg/kg BID | concentration at 16 h ([2]; 16 hours after the first day of dosing (n=3), read-out: Mean trough plasma concentration): 130 ng/mL and 280 nM | concentration at 16 h ([2]; 16 hours after the last dose on Day 18 (n=4), read-out: Steady state mean trough plasma concentration): 820 ng/mL | Mean inhibition of tumor VEGF concentration [3]: 95% | Change in mean tumor fBV in non-necrotic tissue ([4]; Day 1 to Day 5): declined after Day 3 | Change in mean K^trans in non-necrotic tissue ([4]; Day −1 to Day 5): decreased | Change in mean necrotic tumor volume ([4]; Day −1 to Day 5): rapidly increased | Change in mean non-necrotic tumor volume ([4]; Day −1 to Day 5): decreased | Change in mean total tumor volume ([4]; Day −1 to Day 5): little mean change | Proliferative and migratory capacity after three-week exposure, re-plated in the absence of compound ([5]; 50 nM for 3 weeks): does not reduce either the proliferative or the migratory capacity | Migration of cells out of control spheroids re-plated in the presence of compound ([5]; 50 nM, 48 hours): blocked in their ability to migrate out of the spheroid | Plasma VEGF-A levels in patients (FIG. 35) [6]: reduced | Serum VEGF-A levels in patients (FIG. 34) [6]: reduced

— patent US20120157401A1, “METHODS FOR TREATING NEUROFIBROMATOSIS” (PTC Therapeutics, Inc., priority 2009, published 2012)
